The text below walks through data of US20020107197A1, “Ligands for G protein coupled receptors and methods of using them” (priority 2000, published 2002).

Holding throughout (assay type): cell-based
The target of assay [1] is T1, GPR4 (Homo sapiens, UniProt P46093).
T1 construct: were used to generate full length GPR4, which was digested with EcoRI and Xba I and cloned into the pBs3HA vector; expressed in transfected cells
Kind of assay: ERK MAP kinase activation (phospho-ERK Western blot) in GPR4-infected Swiss 3T3 cells. The settings on record: for concentration at which ERK activation was evident / time point at which ERK activation was evident: GPR4-infected Swiss 3T3 cells; for GPR4-dependent ERK activation (in words): GPR4-ires-GFP vs GFP Swiss 3T3 cells, SPC and LPC 100 nM. An outline of the steps: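 Swiss 3T3 cells transduced with MSCV GPR4-ires-GFP or empty vector, FACS-sorted for GFP, serum-starved overnight, then stimulated with lipids in DMEM. Phospho-ERK1/2 detected by Western blot with ECL, normalised to total ERK; some cells pretreated with 100 ng/ml PTX for 12–16 h before SPC or LPC.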

Another assay relates to Swiss 3T3 cells. Kind of assay: DNA synthesis ([3H]thymidine incorporation) in parental and GFP-infected Swiss 3T3 cells. How it is done: The effect of SPC and LPC on DNA synthesis was measured using [^3H] thymidine incorporation. Briefly, GPR4-ires-GFP- and GFP-Swiss 3T3 cells were plated in 96-well plates, serum-starved for 24 h, and treated with SPC, LPC, or other lipids in serum-free DMEM for 24 h. Cells were incubated with 0.75 μCi/ml [^3H]thymidine in serum-free DMEM for the last 18 h. Cells were harvested onto filter papers presoaked in 1% polyethylenimine using the automated cell harvester HARVEST 96. Incorporated [^3H]thymidine was counted in a 1450 Microbeta Trilux Liquid Scintillation and Luminescence Counter (Perkin-Elmer-Wallac, Inc.).
A general note: Incorporation of labelled thymidine or its analogues reports DNA synthesis.

For assay [2], the target named is T2, TDAG8 (Homo sapiens, UniProt Q8IYL9).
T2 construct: expressed in transfected cells
T2 sequence (Q8IYL9 whole entry): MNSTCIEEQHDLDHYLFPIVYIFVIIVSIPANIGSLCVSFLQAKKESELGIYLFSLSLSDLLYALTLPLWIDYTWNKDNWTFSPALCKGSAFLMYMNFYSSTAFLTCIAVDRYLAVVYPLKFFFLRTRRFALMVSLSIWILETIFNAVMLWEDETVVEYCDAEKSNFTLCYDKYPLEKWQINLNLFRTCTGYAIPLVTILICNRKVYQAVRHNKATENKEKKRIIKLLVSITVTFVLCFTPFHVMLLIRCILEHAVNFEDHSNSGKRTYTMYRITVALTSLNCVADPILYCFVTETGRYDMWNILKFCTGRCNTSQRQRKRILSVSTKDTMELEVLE
Nature of the assay: Transwell cell migration of TDAG8-transfected HEK293 cells. The settings on record: TDAG8 overexpressed in HEK293 cells. The protocol:
To determine whether GPR4 and/or TDGA8 can mediate the LPC-induced cell migration, we transfected HEK293 cells with GPR4 or TDAG8. Cell migration was performed in Transwell apparatus. GPR4-transfected HEK293 cells, and TDAG8-transfected HEK293 cells migrated to the low-phase of the membrane and the lower chamber of the Transwell in response to SPC and LPC, used at 0.2 μM.

Assay [3] has as its target T2, TDAG8. Kind of assay: TDAG8 receptor internalization. From the text:
G protein coupled receptors undergo agonist-dependent desensitization and internalization.

A further assay has as its target T3, endogenous PAF receptor (Homo sapiens, UniProt P25105).
T3 construct: endogenous in cells; host or cells: MCF10A (parental and GPR4-GFP-transfected)
Nature of the assay: Calcium assay of the endogenous PAF receptor in MCF10A cells. The settings on record: parental MCF10A cells. How it is done: Measurement of [Ca^2+]i, was performed as described previously in Xu et al. (2000) Nat Cell Biol 2, 261-267. Briefly, pGPR4-GFP-transfected MCF10A cells were grown in specialized glass-bottom dishes (Bioptech, Inc., Butler, Pa.) and loaded with fura-2 in HEPES buffered saline. Using a dual-wavelength spectrofluorometer (RFK-6002, Photon Technology Int'l, So. Brunswick, N.J.) coupled to an inverted fluorescence microscope (Olympus, IX-70, Lake Success, N.Y.), GFP-positive cells were identified using an excitation wavelength of 488 nm, a dichroic 505 nm long-pass filter and an emitter filter at bandpass of 535 nm (Chroma Technology, Brattleboro, Vt.). Measurements of [Ca^2+]i were performed on individual GPR4-GFP positive cells at excitation wavelengths of 340 and 380 nm and an emission wavelength of 510 nm. Conversion of the 340/380 ratio value into [Ca^2+]i in nM was estimated by comparing the cellular fluorescence ratio with ratios acquired using fura-2 (free acid) in buffers containing known Ca^2+ concentrations. [Ca^2+]i was then calculated as described by Grynkiewicz et al. (1985) J Biol Chem 260, 3440-3450. All calcium assays were performed in the presence of 1 mM EGTA in the assay buffers. Therefore, intracellular calcium release, not calcium influx, was analyzed.
Therefore, it is unlikely that the increase in calcium induced by LPC was mediated by a PAF receptor.

Assay [4] concerns the target T1, GPR4. Kind of assay: Cell migration in modified Boyden chamber, GPR4-ires-GFP vs GFP Swiss 3T3 cells. As to conditions: for increase of cell migration over GFP-Swiss 3T3 cells: 100 nM, lower chamber only; for chemokinetic assay: cell motility vs controls: lipid 100 nM in both upper and lower chambers, GFP or GFP-GPR4 Swiss 3T3 cells. How it is done: Chemotaxis was measured in a modified Boyden chamber assay. Briefly, different lipids were added to the lower chambers. GPR4-ires-GFP- and GFP-Swiss 3T3 cells were serum starved for 4 h, trypsinized, and seeded in the upper chambers of Boyden-transwell plates (Corning Inc., Corning, N.Y.). The chambers were incubated for 6 to 8 h. The number of cells that migrated to the lower face of the membrane was counted in 4 random fields. Data are represented as the average ±SD of three independent experiments. For the chemokinetic assay, the same concentrations of lipids were added to both the upper and lower chambers. For Rho inhibition studies, C3-exoenxyme was transiently transfected into Swiss 3T3 cells and cell migration assays were performed 48 hours later.

T1 sequence (P46093 whole entry): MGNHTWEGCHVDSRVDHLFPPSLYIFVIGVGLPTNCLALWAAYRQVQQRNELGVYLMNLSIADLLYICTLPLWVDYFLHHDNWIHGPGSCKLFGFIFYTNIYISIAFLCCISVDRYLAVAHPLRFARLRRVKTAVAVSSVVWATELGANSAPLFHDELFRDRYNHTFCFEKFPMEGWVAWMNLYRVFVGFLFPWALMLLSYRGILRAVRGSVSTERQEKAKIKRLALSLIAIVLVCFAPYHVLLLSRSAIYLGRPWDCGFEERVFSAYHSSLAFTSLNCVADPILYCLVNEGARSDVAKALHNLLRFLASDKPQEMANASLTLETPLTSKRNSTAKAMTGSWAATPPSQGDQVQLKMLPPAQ
T3 sequence (P25105 whole entry): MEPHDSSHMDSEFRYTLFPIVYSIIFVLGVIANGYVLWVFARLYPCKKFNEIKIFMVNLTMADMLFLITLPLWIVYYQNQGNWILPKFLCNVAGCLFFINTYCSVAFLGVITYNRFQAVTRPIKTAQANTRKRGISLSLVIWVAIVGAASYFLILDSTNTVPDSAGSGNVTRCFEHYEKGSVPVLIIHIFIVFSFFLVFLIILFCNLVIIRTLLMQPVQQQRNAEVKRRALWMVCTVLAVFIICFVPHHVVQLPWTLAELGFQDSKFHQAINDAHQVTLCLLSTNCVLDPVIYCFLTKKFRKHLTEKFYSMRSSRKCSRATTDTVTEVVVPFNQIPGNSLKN

Consider `CCCCCCCCCCCCC/C=C/[C@@H](O)[C@@H](N)COP(=O)([O-])OCC[N+](C)(C)C` [SPC, Sphingosylphosphorylcholine], for which, on GPR4 [1], the “concentration at which ERK activation was evident” value is “approximately 10 nM”, the “time point at which ERK activation was evident” value is reported as 1 min and the “GPR4-dependent ERK activation (in words)” value is “enhanced ERK activation”. For the same molecule, in the assay with Swiss 3T3 cells (3 μM, parental and GFP-infected cells), the “increase of DNA synthesis” value is given as “approximately 6.3 fold”. Further, the “increase of cell migration compared with control cells” value at TDAG8 [2] is listed as “four to five-fold”. The TDAG8 receptor internalization result at TDAG8 [3] is listed as “induced TDAG8 receptor internalization”. Moreover, on endogenous PAF receptor, the “calcium increase through the endogenous PAF receptor in parental cells” value is recorded as “not able to induce an increase in calcium”. For the same molecule, at GPR4 [4], the “increase of cell migration over GFP-Swiss 3T3 cells” value was 2.0 fold and the “chemokinetic assay: cell motility vs controls” value was “did not significantly change cell motility”.

`CCCCCCCCCCCCCCCC(=O)OC[C@@H](O)COP(=O)([O-])OCC[N+](C)(C)C` [16:0-LPC]: the “DNA synthesis response (in words)” value with Swiss 3T3 cells (GFP-expressing cells) is reported as “did not respond significantly”. At GPR4 [4], the “increase of cell migration over GFP-Swiss 3T3 cells” value stood at 1.7 fold and the “chemokinetic assay: cell motility vs controls” value is reported as “did not significantly change cell motility”.

Turning to lysophosphatidylcholine [LPC], on GPR4 [1], the “concentration at which ERK activation was evident” value is roughly 100 nM, the “time point at which ERK activation was evident” value worked out at 5 min and the “GPR4-dependent ERK activation (in words)” value was “enhanced ERK activation”. Also, the “increase of cell migration compared with control cells” value at TDAG8 [2] is “four to five-fold”. Besides, the TDAG8 receptor internalization result on TDAG8 [3] is given as “not”. Further, the “calcium increase through the endogenous PAF receptor in parental cells” value at endogenous PAF receptor is recorded as “not able to induce an increase in calcium”.
